In data set [1] the test system is cytochrome c in MCF-10A cells. In words: Mitochondria staining and cytochrome c detection, MCF-10A. In kind it is cell-based, human. The settings on record: IC50 value, 24 h. Here is the method:
(§1) The MitoTracker Deep Red FM probe (MitoTracker Mitochondrion-Selective Probes, Invitrogen European Headquarters, Paisley, PA4 9RF, UK) was used for mitochondrial staining, as previously described. For immunofluorescence analysis, the cells were seeded and further processed, as reported by Iacopetta et al.. The primary antibodies used were: rabbit anti-β-Actin and vimentin (Santa Cruz Biotechnology, Dallas, TX, USA), mouse anti cytochrome c and NF-κB p65 (Abcam, Cambridge, UK), diluted 1:100 in bovine serum albumin (BSA) 2% overnight at 4 °C. The secondary antibodies were: Alexa Fluor® 488 conjugate goat-anti-rabbit and Alexa Fluor® 568 conjugate goat-anti-mouse (Thermo Fisher Scientific, MA, USA), diluted 1:500 and incubated for 2h at 37 °C. DAPI 0.2 μg/mL (Sigma Aldrich, Milan, Italy) was used for nuclei staining. […] All the images were acquired and processed using the LAS-X software.
I: Figure S5. Mitochondria staining and cytochrome c detection in MCF-10A cells
Figure S5. Mitochondria staining and cytochrome c detection in MCF-10A cells. Figure S5.
Mitochondria staining and cytochrome c detection in MCF-10A cells. In th e CTRL cells as well as
Panels A, DAP I λex/em= 350/460 nm; Panels B, Alexa Fluor CF 488 λex/em=
490/515 nm; Panels C, MitoTracker Deep Red FM probe λex/em= 644/665 nm. Panels D: overlay
channels. Images were acquired at 40x magnification and representative fields are shown.

In data set [2] the target is T1, Labeled Rabbit Muscle Actin (Oryctolagus cuniculus, UniProt P68135).
T1 construct: purchased Abcam (Actin Polymerization/Depolymerization Assay Kit)
As to the kind of experiment: In vitro actin depolymerization assay. In kind it is biochemical. The settings on record: 5 µM. How it is done:
The ability of the tested compounds to interfere with the actin polymerization and depolymerization reaction was measured using an Actin Polymerization/Depolymerization Assay Kit purchased from Abcam, following the manufacturer’s instructions. […] For the polymerization assay, reconstituted actin was mixed with supplemented Buffer G and samples in a white 96-well plate and then the polymerization reaction was induced with the addition of the Buffer P supplemented with 10 mM ATP. The solution was mixed and the data acquisition started. For the Actin Depolymerization Assay, supplemented Buffers P and G were mixed and incubated in a white 96-well plate at room temperature for one hour to polymerize the actin, protected from light. Then samples were added and the data acquisition started. Latrunculin A and Cytochalasin B were used as control molecules at a concentration of 5 μM. For both the assays, the assembly of actin filaments was determined by measuring the fluorescence (Ex/Em: 365/410 nm) in kinetic mode for 1 h at room temperature using a microplate reader.

In the next data set the test system is SkBr3 cells. As to the kind of experiment: MTT assay, SkBr3. Conditions: MTT, 72 h; mean ± SD; read-out: IC50 SkBr3. It is filed as cell-based, human. How it is done: (§2) The five employed cell lines were purchased from American Type Culture Collection (ATCC, Manassas, VA, USA) and maintained as already reported. MCF-7, MDA-MB-231, MCF-10A and Hek-293 were cultured, as indicated by Iacopetta et al.. SkBr3 cells were maintained in DMEM high glucose, supplemented with 10% FBS and 100 μg/mL penicillin/streptomycin.
(§3) MTT assays [Sigma Aldrich (St.Louis, MO, USA)] were used in order to determine the in vitro anticancer activities of all the target compounds, as already reported.The compounds were tested at different concentrations (0.1-1-10-20-40 µM) for 72 h. Results are represented as percent (%) of basal and the IC50 values were calculated using GraphPad Prism 9 (GraphPad Software, La Jolla, CA, USA).

Another data set has as its system Hek-293 cells. In words: MTT assay, normal Hek-293. In kind it is cell-based, human. The settings on record: MTT, 72 h; normal cells; mean ± SD; read-out: IC50 Hek-293. How it is done:
The five employed cell lines were purchased from American Type Culture Collection (ATCC, Manassas, VA, USA) and maintained as already reported. […] SkBr3 cells were maintained in DMEM high glucose, supplemented with 10% FBS and 100 μg/mL penicillin/streptomycin.
as §3
On the technique in general: Formazan colour is commonly taken as a measure of viable cells.

The test system of another data set is MCF-7 cells. As to the kind of experiment: MTT assay, MCF-7. In kind it is cell-based, human. Conditions: MTT, 72 h; mean ± SD; read-out: IC50 MCF-7. How it is done:
as §2, §3

Another data set has as its system MDA-MB-231 cells. In words: MTT assay, MDA-MB-231. It is filed as cell-based, human. Conditions: MTT, 72 h; mean ± SD; read-out: IC50 MDA-MB-231. Here is the method: as §2, §3
The test system of a further data set is β-actin in MCF-10A cells. In words: Actin immunofluorescence, MCF-10A. It is filed as cell-based, human. Here is the method:
as §1
E: Figure S1. Actin immunofluorescence studies in MCF-10A cells […]
Figure S1. Actin immunofluorescence studies. M CF-10A cells were treat ed with compounds 1 and […]
treatment, the cells were methanol fixed, incubated with primary and secondary antibodies, stained with DAPI and observed and imaged under the inverted fluorescence microscope at 20x […]
A: nuclear stain with DAPI (λex/λem = 350/460 nm); Panels B: β-actin ([…]); Panels C: show a merge. R epresentative fields are shown.

In the next data set the test system is MCF-10A cells. In words: TUNEL assay, MCF-10A. The settings on record: IC50, 24 h.
Data set [3] deals with vimentin in MCF-10A cells. As to the kind of experiment: Vimentin expression (immunofluorescence, Western blot), MCF-10A. It is filed as cell-based, human. Conditions: IC50 values, 24 h; immunofluorescence and Western blot quantification. How it is done: as §1
Protein lysates underwent the SDS-PAGE process, as already defined. […]
(CTRL) for 24 h. After treatment, the cells were further processed, observed and imaged under the inverted fluorescence microscope at 20x m agnification (for mo re details see Materi als and M ethods). […]
and processed as reported in the Experimental Section. […] (d) Western blots quantification carried out using […]
Background: Immunoblotting shows a protein as a band on a membrane.

Like-named read-outs stand apart in the source and are kept apart here. Some results are limits rather than exact numbers.

One may read the IC50 as the midpoint of a concentration-inhibition curve. With `CC(=O)[O-].Cn1c(Cl)c(Cl)n(CC(O)c2ccccc2)[c]1=[Au+]=[c]1n(C)c(Cl)c(Cl)n1CC(O)c1ccccc1` (stereo not drawn) [Compound 6, Bis [4,5-dichloro-(N-methyl, N’(2-hydroxy-2-phenyl-ethyl)imidazole-2-ylidine]gold(I)] acetate], the “cytochrome c localization, MCF-10A” value in [1] is reported as “within mitochondria”. Also, in data set [2], the “effect on already polymerized actin (in words)” value is listed as “did not produce a significant decrease”. Moreover, the IC50 amounted to 2.3 ± 0.9 µM in the data set on SkBr3 cells, 32.5 ± 1.1 µM with Hek-293 cells, 1.2 ± 0.3 µM in the data set on MCF-7 cells and 16.8 ± 1.2 µM in the data set with MDA-MB-231 cells. For the same molecule, in the data set on β-actin in MCF-10A cells, the “actin organization in MCF-10A cells” value is “normal”. The “apoptosis (TUNEL), MCF-10A” value in the data set with MCF-10A cells was “No apoptosis was detected”. Besides, in data set [3], the “vimentin expression vs CTRL, MCF-10A” value was “not significant”.

As for `Cn1ccn(CC([O-])c2ccccc2)[c]1=[Au+]=[c]1n(C)ccn1CC([O-])c1ccccc1.[Cl-].[Na+].[Na+]` (stereo not drawn) [Compound 1], in data set [1], the “cytochrome c localization, MCF-10A” value is listed as “within mitochondria”. In addition, the “effect on already polymerized actin (in words)” value in [2] was “did not produce a significant decrease”. The IC50 is 83 ± 1 µM in the data set with SkBr3 cells, more than 200 µM in the data set with Hek-293 cells, 29.9 ± 1.1 µM in the data set on MCF-7 cells and 15.8 ± 0.7 µM in the data set on MDA-MB-231 cells. Besides, in the data set with β-actin in MCF-10A cells (24 h, compounds at their IC50 value, LA 0.1 μM), the “actin organization in MCF-10A cells” value was “normal”. Moreover, the “apoptosis (TUNEL), MCF-10A” value with MCF-10A cells is recorded as “No apoptosis was detected”. Also, the “vimentin expression vs CTRL, MCF-10A” value in data set [3] is given as “not significant”.
